Here are results for 14 compounds from US10689374B1, “Pyrimidine-thiazolidinone derivatives” (UNITED ARAB EMIRATES UNIVERSITY, priority 2019, dated 2020).

Entries after “also recorded” stand apart in the source; their conditions may differ. Where a name gives a salt, the structure may show the parent alone.

The test system of experiment [1] is β TC6 cells. As to the kind of experiment: In vitro glucose uptake assay. The format is cell-based. The settings on record: each compound at a concentration of 10 μM. On the procedure:
FIG. 5A is a bar graph comparing the results of pioglitazone with compounds 130a-g, each at a concentration of 10 μM, for effect on glucose uptake from β TC6 cells.
FIG. 5B is a bar graph comparing the results of pioglitazone with compounds 112, 105a-d, 121, 117, 119, and 126, each at a concentration of 10 μM, for effect on glucose uptake from β TC6 cells.
FIG. 5C is a bar graph comparing the results of metformin with compound 138, each at a concentration of 10 μM, for effect on glucose uptake from β TC6 cells.
The results of the in vitro glucose uptake study are depicted in FIGS. 5A-5C.

For experiment [2], the system named is βTC6 cells. The experiment in a line: Insulin secretion from βTC6 cells (high range insulin Sandwich ELISA kit). The format is cell-based. The note with it: compounds at 10^−12, 10^−9, 10^−6 M; for basal insulin secretion: absence of glucose; for glucose stimulated insulin release: presence of 2.8 mM glucose. On the procedure:
Secretion of insulin by βTC6 cells was measured using the high range insulin Sandwich ELISA kit.
Similarly, a variety of thiazolidinedione-2,4-dione-pyrimidine derivatives, at 10^−12, 10^−9, 10^−6 M concentrations, were investigated for their effect on insulin secretion in the absence and presence of 2.8 mM glucose from βTC6 cells. […] These compounds also increase insulin secretion in the presence of glucose and, thereby, prevent hyperglycemia.
The effects of rhodanine-pyrimidine derivatives 130a-g were also investigated at 10^−12, 10^−9, 10^−6 M concentrations, for effect on insulin secretion in absence and presence of 2.8 mM glucose in βTC6 cells.
(In an ELISA, binding on a coated surface is turned into a signal by an enzyme label.)

For `Nc1nccc(NS(=O)(=O)c2ccc(/C=C3/SC(=O)NC3=O)cc2)n1` [Compound 105c], the glucose uptake result in experiment [1] is “most potent activity”. Moreover, in experiment [2], the basal insulin secretion entry is given as “no effect” and the “glucose stimulated insulin release” value is recorded as “significantly increased”.

For `Nc1nccc(NC(=O)CC2SC(=O)NC2=O)n1` (stereo not shown) [Compound 117, N-(2′-Aminopyrimidin-4′-yl)-2-(2″,4″-dioxothiazolidin-5″-yl)acetamide], in experiment [1], the glucose uptake result was “most potent activity”. In addition, the basal insulin secretion result in experiment [2] is listed as “significantly inhibited”.

With `O=C(O)CN1C(=O)/C(=C/c2cnc(N3CCOCC3)nc2)SC1=S` [Compound 130e], the glucose uptake entry in experiment [1] is “most potent activity”. Further, in experiment [2], the basal insulin secretion entry is “significant increases” and the “glucose stimulated insulin release” value is “significant increases”.

As for `CN=C1NC(=O)/C(=C\c2cnc(Nc3cccc4ccccc34)nc2)S1` [Compound 112], the glucose uptake result in experiment [1] is “most potent activity”.

On to `C/N=C1/NC(=O)/C(=C\c2ccc(S(=O)(=O)Nc3ccnc(N)n3)cc2)S1` [Compound 105b], for which, in experiment [1], the glucose uptake entry is listed as “most potent activity”. Also, in experiment [2], the basal insulin secretion result was “significant decrease” and the “glucose stimulated insulin release” value is recorded as “significant increase”.

As for `Cc1ccc(S(=O)(=O)NC(=O)Nc2nccc(NC(=O)CC3SC(=O)NC3=O)n2)cc1` (stereo not shown) [Compound 119, 2-(2′,4′-Dioxothiazolidin-5-yl)-N-[2″-(p-tosylureido)pyrimidin-4″-yl]acetamide], the glucose uptake result in experiment [1] is “most potent activity”. The basal insulin secretion entry in experiment [2] is listed as “significantly increased”.

For `CCCNc1ncc(/C=C2\SC(=S)N(CC(=O)O)C2=O)cn1` [Compound 130f], the glucose uptake result in experiment [1] is “most potent activity”. For the same compound, in experiment [2], the basal insulin secretion result is on record as “significant increases” and the “glucose stimulated insulin release” value is “significant increases”.

On to `CN=C1NC(=O)/C(=C\c2ccc(S(=O)(=O)[n+]3ccccc3)cc2)S1` [Compound 105a, 2-(Methylimino)-5-[4′-(N-pyridinesulfonyl)benzylidine]thiazolidin-4-one chloride salt], for which the glucose uptake result in experiment [1] is “most potent activity”. Moreover, in experiment [2], the basal insulin secretion result is “significant decrease” and the “glucose stimulated insulin release” value was “significant increase”.

`CC(C)Nc1ncc(/C=C2\SC(=S)N(CC(=O)O)C2=O)cn1` [Compound 130d]: in experiment [2], the basal insulin secretion result is listed as “did not show any effect” and the “glucose stimulated insulin release” value is recorded as “did not show any effect”.

As to `Nc1ncc(/C=C2\SC(=S)NC2=O)cn1` [Compound 130b, (Z)-5-[(2′-Aminopyrimidin-5′-yl)methylene]-2-thioxothiazolidin-4-one], in experiment [2], the basal insulin secretion entry is “significantly increased”.

Take `O=C(O)CN1C(=O)/C(=C/c2cnc(NCc3ccccc3)nc2)SC1=S` [Compound 130g, (Z)-2-{5′-[2″-(Benzylamino)pyrimidin-5″-yl]methylene-4′-oxo-2′-thioxothiazolidin-3′-yl}acetic acid]: the glucose uptake entry in experiment [1] is reported as “most potent activity; also recorded: enhancing the glucose uptake significantly (p<0.001)”. Besides, in experiment [2], the “glucose stimulated insulin release” value is listed as “significantly increased”.

Consider `Cc1cc(O)nc(NC(=O)CN2C(=O)/C(=C\c3ccc(F)cc3)SC2=S)n1` [Compound 126, (E)-2-[5′-(p-Fluorobenzylidene)-4′-oxo-2′-thioxothiazolidin-3′-yl]-N-(4″-hydroxy-6″-methyl-pyrimidin-2″-yl)acetamide], for which the glucose uptake result in experiment [1] was “enhancing the glucose uptake significantly (p<0.001)”. For the same compound, in experiment [2], the basal insulin secretion result is “significant decrease” and the “glucose stimulated insulin release” value is “significant increase”.

Turning to `CN(C)c1ncc(/C=C2\SC(=S)NC2=O)cn1` [Compound 130a], in experiment [2], the basal insulin secretion result is “did not show any effect” and the “glucose stimulated insulin release” value was “did not show any effect”.

On to `CN(C)c1ncc(/C=C2\SC(=S)N(CC(=O)O)C2=O)cn1` [Compound 130c], for which, in experiment [2], the “glucose stimulated insulin release” value is given as “significantly increased”.
